Data reported in PubChem BioAssay (NCI).
Several values for one entry are separate records, joined by “and”; a condition that tells them apart may be missing. Identical values can stand only once.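 A five-concentration, 48-hour dose response in 96-well plates underlies each endpoint, interpolated linearly between surrounding concentrations. The concentration for 50% growth inhibition is given as GI50. TGI denotes the concentration required for complete inhibition of growth.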

Legend:
Experiment in all cases: NCI anticancer screen, dose series, 48 h
HCC-2998 colon = system: HCC-2998 colon
M14 melanoma = system: M14 melanoma
NCI-H460 lung = system: NCI-H460 lung
SF-295 CNS = system: SF-295 CNS
SK-MEL-28 melanoma = system: SK-MEL-28 melanoma
SNB-19 CNS = system: SNB-19 CNS
SNB-75 CNS = system: SNB-75 CNS
TK-10 renal = system: TK-10 renal
UO-31 renal = system: UO-31 renal
HCT-15 colon = system: HCT-15 colon

| SMILES | GI50 (HCC-2998 colon) [µM] | TGI (HCC-2998 colon) [µM] | GI50 (M14 melanoma) | TGI (M14 melanoma) | GI50 (NCI-H460 lung) | TGI (NCI-H460 lung) [µM] | GI50 (SF-295 CNS) [µM] | TGI (SF-295 CNS) [µM] | GI50 (SK-MEL-28 melanoma) [µM] | TGI (SK-MEL-28 melanoma) [µM] | GI50 (SNB-19 CNS) [µM] | TGI (SNB-19 CNS) [µM] | GI50 (SNB-75 CNS) | TGI (SNB-75 CNS) [µM] | GI50 (TK-10 renal) [µM] | TGI (TK-10 renal) [µM] | GI50 (UO-31 renal) [µM] | TGI (UO-31 renal) [µM] | TGI (HCT-15 colon) [µM] | GI50 (HCT-15 colon) [µM] |
| --- | --- | --- | --- | --- | --- | --- | --- | --- | --- | --- | --- | --- | --- | --- | --- | --- | --- | --- | --- | --- |
| O=C(CCl)N1c2ccccc2Oc2ccc3ccccc3c21 | 1.86 | 3.59 | 1.14 µM | 2.56 µM | 2 µM | 4.11 | 2.41 | 5.92 | 1.83 | 3.34 | 1.86 | 3.44 | 1.47 µM | 2.82 | 0.769 | 1.7 | 1.17 | 2.53 | – | – |
| CC1(C)OC(=O)C(=Cc2ccc(O)cc2)C(=O)O1 | – | > 100 | – | > 100 µM | – | > 100 | – | > 100 | – | > 100 | – | > 100 | – | – | – | > 100 | – | > 100 | > 100 | – |
| CC[C@@]12CCCN3CC[C@]4(c5cccc(OC)c5N(C(C)=O)[C@@H]4CC1)[C@H]32 | – | 51.1 | – | > 100 µM | – | > 100 | – | > 100 | – | > 100 | – | > 100 | – | – | – | > 100 | – | > 100 | > 100 | – |
| CNC(=O)c1cc(Oc2ccc3nc(NC(=O)Nc4ccc(Cl)c(C(F)(F)F)c4)sc3c2)ccn1 | – | – | – | – | – | – | 1.79 | 3.71 | – | – | 2.77 | 10.2 | 1.52 µM | 3.24 | 2.29 | 4.62 | – | – | – | – |
| CCNC1C2(CCCCC2)NC(=O)C12CCCCC2 (configuration not stated) | – | > 100 | – | > 100 µM | – | > 100 | – | > 100 | – | > 100 | – | – | – | > 100 | – | > 100 | – | > 100 | > 100 | – |
| O=C(O)CCSC(=O)Nc1cccc(F)c1 | – | > 100 | – | 45.4 µM | – | > 100 | – | > 100 | – | > 100 | – | > 100 | – | – | – | > 100 | – | > 100 | > 100 | – |
| COc1ccc2c(c1)C1(C=N2)CCN(C(C)=O)CC1 | – | > 100 | – | > 100 µM | – | > 100 | – | > 100 | – | > 100 | – | – | – | > 100 | – | > 100 | – | – | > 100 | – |
| CCOC(=O)C1=C(C)CC2C(=O)OC(=O)C2C1(C)C (configuration not stated) | – | > 100 | – | > 100 µM | – | > 100 | – | > 100 | – | > 100 | – | > 100 | – | – | – | > 100 | – | > 100 | > 100 | – |
| Nc1ccc(C(=O)N/C(=C\c2ccc3c(c2)OCO3)c2nc3[nH]c(=S)[nH]c(=O)c3[nH]2)cc1 | – | > 100 | – | > 100 µM | – | – | – | > 100 | – | > 100 | – | > 100 | – | – | – | > 100 | – | > 100 | > 100 | – |
| Cc1cnc(NC(=O)C(Cc2ccccc2)NC(=O)c2ccccc2)s1 (configuration not stated) | 1.83 | 5 | 1.75 µM | 3.95 µM | 3.54 µM | 13.8 | – | – | 19.8 | 49.9 | 19 | 48.6 | 6.53 µM | 27.7 | 10.2 | 30.7 | 3.98 | 18.9 | 8.9 | 2.63 |
| CC1=C(C(=O)Nc2ccccc2C)C(c2ccco2)C(C(=O)Nc2ccccc2C)=C(C)N1C | – | > 100 | – | > 100 µM | – | > 100 | – | > 100 | – | > 100 | – | > 100 | – | – | – | > 100 | – | > 100 | – | – |
| COC(=O)[C@@H](C)C[C@H](Cc1ccc(F)cc1)NC(=O)c1csc([C@@H](C[C@H](C(C)C)N(C)C(=O)[C@@H](NC(=O)[C@H]2CCCCN2C)C(C)C)OC(C)=O)n1 | – | > 16.7 | 0.00119 µM and 0.00539 µM | 0.763 µM and 0.079 µM | 0.000678 µM and 0.0063 µM | > 16.7 | – | > 16.7 | > 16.7 | > 16.7 | – | > 16.7 | 0.000986 µM and 0.00522 µM | > 16.7 | – | – | – | > 16.7 | > 16.7 | – |
| CCOC(=O)COc1cccc2c1C(=O)CCO2 | – | > 100 | – | > 100 µM | – | > 100 | – | > 100 | – | > 100 | – | > 100 | – | – | – | > 100 | – | > 100 | > 100 | – |
| COC(=O)Nc1nc2ccc(S(=O)c3ccccc3)cc2[nH]1 (configuration not stated) | 10.5 | > 100 | 3.11 µM | > 100 µM | 4.17 µM | > 100 | – | – | 3.78 | > 100 | 6.12 | > 100 | 1.75 µM | 5.75 | 12.4 | > 100 | 8 | > 100 | > 100 | 4.58 |
| COc1ccc(-c2cc(=O)c3ccc(O)cc3o2)c(OC)c1OC | – | > 100 | – | > 100 µM | – | – | – | > 100 | – | > 100 | – | > 100 | – | 71.4 | – | > 100 | – | – | – | – |
| CC(=O)C(CN(C(C)C)C(C)C)C(c1ccccc1)c1c(O)c2ccccc2oc1=O (configuration not stated) | – | – | – | > 100 µM | – | > 100 | – | > 100 | – | > 100 | – | > 100 | – | > 100 | – | > 100 | – | > 100 | > 100 | – |
| COc1cccc(NC(=O)CC(=O)n2nc(C)c(N=Nc3ccccc3)c2C)c1 | – | > 100 | – | > 100 µM | – | – | – | > 100 | – | > 100 | – | > 100 | – | > 100 | – | > 100 | – | > 100 | – | – |
| c1cc2c(cc1NC1=NCCO1)CCC2 | – | > 10 | – | – | – | – | – | > 10 | – | > 10 | – | 7.72 | – | > 10 | – | > 10 | – | – | > 10 | – |
| CC(=O)OC(C)C(=O)C1c2cccc(O)c2C(=O)c2c(O)cc(C)cc21 (configuration not stated) | – | 1.69 | – | – | – | 1.35 | – | 1.19 | – | 2.3 | – | 1.6 | – | 1.83 | – | 2.88 | – | 0.744 | 1.55 | – |
| COc1ccc(C2=CSc3cc(Cl)c(C)cc3S(=O)(=O)N2C(C)=O)cc1 | 27.1 | 69.5 | 49.1 µM | > 100 µM | 29 µM | 99.5 | – | – | 56 | > 100 | 36.3 | > 100 | – | – | 17.8 | 46.7 | 51.2 | > 100 | 88.5 | 24.6 |
| O=C(O)C(Cc1ccccc1)N1C(=O)N/C(=C\c2ccc(F)cc2)C1=O (configuration not stated) | – | > 100 | – | > 100 µM | – | > 100 | – | > 100 | – | – | – | – | – | > 100 | – | > 100 | – | > 100 | > 100 | – |
